Source: US10501502B2, “Allophycocyanin alpha-subunit evolved labeling proteins (smURFPs)” (The Regents of the University of California, priority 2016, dated 2019)
Entries after “also recorded” stand apart in the source; their conditions may differ.

Legend:
[1] = tested on: HEK293A cells; experiment: Fluorescence imaging of FPs in HEK293A cells with chromophore addition or HO-1 expression; format: cell-based
Excerpt: smURFP codons were optimized for human cell expression, and the gene was created by GenScript. smURFP, TDsmURFP (created from mammalian-optimized smURFP), IFP1.4 (mammalian-optimized form^35), IFP2.0 (mammalian-optimized form^46), and iRFP713 (mammalian-optimized form^36) were PCR amplified using Phusion High-Fidelity DNA Polymerase (NEB) with primers containing 5′ HindIII and 3′ XhoI restriction enzyme sites. HindIII-HF and XhoI (NEB)-digested PCR fragments were gel purified (Zymoclean Gel DNA Recovery Kit) and were ligated (T4 DNA Ligase, Life Technologies) into a similarly digested pCDNA3-IRES-eGFP vector (bicistronic to express two FPs in the same cell). For creation of HO-1-expressing mammalian vec-tors, the Synechocystis HO-1 was used, and the codons were not optimized for mammalian expression. Synechocystis HO-1 was directly amplified from the pBAD vector using primers containing 5′ BsiWI and 3′ XbaI restriction enzyme sites. pCDNA3 smURFP, TDsmURFP, IFP1.4, IFP2.0, or iRFP713-IRES-eGFP vectors were digested with BsiWI and XbaI (NEB), dephosphorylated (SAP, Roche), gel purified (Zymoclean Gel DNA Recovery Kit), and ligated (T4 DNA Ligase, Life Technologies) with similarly digested, purified HO-1 PCR fragment. For creation of smURFP fusions, smURFP was PCR amplified using Phusion High-Fidelity DNA Polymerase (NEB) with primers containing 5′ AgeI and 3′ NotI restriction enzyme sites for N-terminal fusions or with primers containing 5′ AgeI and 3′ BspEI restriction enzyme sites for C-terminal fusions. mGeos2-VEL-ManII-N-10 (Addgene 57551) and Dronpa-PDHA1-N-10 (Addgene 57292) vectors were digested with AgeI and NotI (NEB) and mCherry-αTubulin-C-18 (Addgene 55148) and tdTomato-LaminB1-10 (Addgene 58107) were digested with AgeI and BspEI, dephosphorylated (SAP, Roche), gel purified (Zymoclean Gel DNA Recovery Kit), and ligated (T4 DNA Ligase, Life Technologies) with similarly digested, purified smURFP PCR fragment. HEK293A (Invitrogen, Life Technologies), HT1080 (ATCC), and PC3 (ATCC) cells were grown in Dulbecco's Modified Eagle's medium (DMEM, Corning), supplemented with 10% FBS (Atlanta Biologicals)+1×penicillin—streptomycin (Fisher Scientific), which is referred to as growth media, on poly-D-lysine-coated glass-bottom culture dishes (MatTek, No. P35G-0-14-C). The HEK cell line is listed in the ICLAC and NCBI biosample databases and is commonly misidentified as the HeLa cell line. For expression of exogenous fluorescent proteins, there is no problem if there is a contaminating cell line because no endogenous biology or therapeutic results are being determined. HEK293A cells were purchased from Invitrogen (Life Technologies), and all experiments are derived from the same expanded frozen stock without cell line authentication or mycoplasma detection. Cells were transfected using 2 μg of circular DNA+5 μl Lipofectamine 2000 (Life Technologies) in 2 ml Opti-MEM (Life Technologies) for 4-5 h, transfection media was discarded, and prewarmed growth media was added. Chromophores (5 mM in DMSO) were added at indicated concentrations to growth media, warmed for 10-15 min at 37° C., and added to cells. For multiple timepoints, incubations were staggered to maintain equivalent incubation. Prior to imaging, cells were washed 1×2 ml growth media, 2×2 ml imaging solution, and imaged in 2 ml imaging solution. Fluorescence imaging was performed on a Zeiss Axiovert 200M inverted microscope controlled by SlideBook software. FPs were imaged with the following settings: eGFP, EX/EM=495(10)/535(25) nm, tdTomato EX/EM=540(25)/595(50) nm; mCherry and mCardinal, EX/EM=580(20)/653(95) nm; smURFP and TDsmURFP, EX/EX=628(40)/680(30) nm; and IFP1.4, IFP2.0, and iRFP713, EX/EM=665(45)/725(50) nm. […]

[2] = BV or BVMe2 concentration in plasma, in vitro; settings: 10 μM, 37° C., up to 1,440 min
Method: Whole blood was collected via abdominal aorta and placed in tubes with lithium heparin (BD, No. 365971) on ice. Tubes were centrifuged to remove red blood cells, and plasma was stored on ice for 30 min. Clarified plasma was combined and aliquoted into 9×70 μl aliquots and placed on ice. The following nine experiments were performed: starting plasma (1) and plasma+10 μM BV (2-5) or BVMe2(6-9) at time 0 at 4° C. and 15, 60, and 1,440 min at 37° C. Reactions were stopped by freezing at −80° C. Plasma samples were thawed, diluted 4× with cold 50% ACN, 48% water (H2O), and 2% acetic acid, and centrifuged for 14 min at 4° C. Reverse-phase high performance liquid chromatography (HPLC) was performed on an Agilent 1100 Series HPLC on a Phenomenex Luna C18(2) reverse-phase column 100 Å, 250 cm×21.20 mm I.D. 10 μm reverse-phase column (00G-4253-P0 AX), with a 21 min, 10-90% H2O:ACN (0.05% trifluoroacetic acid, TFA) gradient and a flow rate of 1 ml/min into a diode array detector and MSD-Ion Trap (Agilent LC/MSD trap XCT).

[3] = FP purification and fluorescence characterization in vitro (spectra, extinction coefficient, quantum yield); format: physicochemical
Method: FP genes were expressed on a pBAD vector (Life Technologies) with a polyhistidine tag on the C terminus, cells were lysed with B-PER (Thermo Scientific), and purified using Ni-NTA (Qiagen) puri-fication. PCB (HO-1+PcyA) and BV (HO-1) incorporation in Escherichia coli was performed simultaneously during constitu-tively active FP expression. Extinction coefficient was determined by PCB or BV absorbance as described35,36 (Table 3, smURFP+BV and TDsmURFP+BV, and Table 2) or calculated for the apoproteins by determining the protein concentration by the BCA protein assay (Pierce), and a specific chromo-phore concentration was added (specified in the Purification of FP lacking chromophore and in vitro chromophore incorporation section) to get 1 and 2 chromophore species (Table 5, not including (Escherichia coli)). When FP chromophore (PCB or BV) was expressed in Escherichia coli, the PCB and BV Q band had absorbance that overlapped with detection of BCA or Bradford assay of 562 nm and 592 nm, respectively. We used the previously published protocols35,36, where there was no change of the BV absorbance at 390 nm when free in solution or attached to the FP. smURFP+BV denaturation with 1 M urea caused no change in the BV absorbance at 390 nm, but the Q band was reduced ˜20-fold. Therefore, the extinction coefficient of BV at 390 nm was used to calculate the concentration of holoprotein (FP+PCB or BV) concentration.
EX and EM spectra were obtained using SPEX Fluorolog fluorometer (Horiba). Absorbance spectra were obtained using UV-VIS Spectrophotometer Cary Eclipse (Varian) or UV-2700 (Shimadzu). Quantum yield was determined relative to Cy5. Incorporation rates of BV on 0.5 μM smURFP was performed by addition of smURFP to PBS alone or with 20% fetal bovine serum (FBS) and mixed by pipetting in a quartz cuvette. Chromophore was added last, mixed by pipetting, and fluorescence was recorded using SPEX Fluorolog fluorometer (Horiba). Photobleaching was characterized on bubbles of purified FP or Cy5 within mineral oil using light from a 150 W xenon arc lamp with 100% light through EX/EM=628(40)/680(30) nm for smURFP, TDsmURFP, and Cy5 or EX/EM=665 (45)/725 (50) nm for IFP 1.4 focused with a 40×, 1.2 numerical aperture C-Apochromat oil-immersion lens on a Zeiss Axiovert 200M inverted microscope. Photobleaching times were normalized to reflect an initial illumination intensity producing 1,000 photons per fluorescent molecule per second as previously described^37.
HO-1 was removed by digesting the pBAD vector (Life Technology) with MscI and PmeI (NEB). smURFP and TDsmURFP were expressed and purified as described above. No chromophore was present on smURFP and TDsmURFP (confirmed by UV, fluorescence imaging, and MS). For predominant fluorescent species+2 chromophores, a ten-fold excess of chromophore was added to smURFP and TDsmURFP. For predominant fluorescent species+1 chromophore, a quarter concentration of chromophore was added to smURFP and TDsmURFP. Chromophore was added in PBS+10% FBS at 37° C. overnight. smURFP+chromophore and TDsmURFP+chromophore were purified using NiNTA (Qiagen) to remove excess or noncovalently attached chromophore.

quantum yield (QY) [3]: 0.013%
SMILES: C=CC1=C(C)/C(=C/C2=NC(=C\c3[nH]c(/C=C4\NC(=O)C(C)=C4C=C)c(C)c3CCC(=O)O)/C(CCC(=O)O)=C2C)NC1=O [BV, biliverdin, reference compound]
fluorescence with 25 μM BV at pH 6.4 relative to BV at pH 7.5 ([1]; 3.5 h): increased fluorescence three-fold | fluorescence with protonated BV (pH 6.4) relative to BVMe2 ([1]; pH 6.4): five-fold less | stability in plasma in vitro [2]: slower degradation; also recorded: significantly degraded
